According to US9593305B2, “Differentiation of pluripotent stem cells” (Janssen Biotech, Inc., priority 2008, dated 2017):

Tests used:
[1] = system: H1 human embryonic stem cells; test: Analog screening with GDF-8 and growth factor/agonist pool (Example 8, Tables 7 and 8); format: cell-based; set-up: Cell Number, % of positive control / Sox17 Expression, % of positive control: tested at 2.5 µM
Protocol: Briefly, clusters of H1 human embryonic stem cells were grown on reduced growth factor […]™ (Invitrogen; Cat #356231)-coated tissue culture plastic. Cells were passaged using collagenase (Invitrogen; Cat #17104-019) treatment and gentle scraping, washed to remove residual enzyme, and plated with even dispersal at a ratio of 1:1 (surface area) on reduced growth factor […]™-coated 96-well black plates (Packard ViewPlates; PerkinElmer; Cat #6005182) using volumes of 100 μl/well. Cells were allowed to attach as clusters and then recover log phase growth over a 1 to 3 day period, feeding daily with MEF conditioned medium supplemented with 8 ng/ml bFGF (R&D Systems; Cat #233-FB). Plates were maintained at 37° C., 5% CO2 in a humidified box throughout the duration of assay. Growth factors purchased from R&D Systems were EGF (Cat #236-EG), FGF4 (Cat #235-F4), PDGF-A (Cat #221-AA), PDGF-D (Cat #1159-SB), PDGF-A/B (Cat #222-AB). […] Screening was conducted using a library of compounds that were made available as 5 mM stocks in 96-well plate format, solubilized in 100% DMSO (Sigma; Cat #D2650) and stored at −80° C. The compounds were further diluted to an intermediate concentration of 0.2 mM in 50 mM HEPES (Invitrogen; Cat #15630-080), 20% DMSO and stored at 4° C. Test conditions were performed in single wells, feeding on alternate days over a four-day assay period. Primary screening assays were initiated by aspirating culture medium from each well followed by three washes in PBS (Invitrogen; Cat #14190) to remove residual growth factors and serum. On the first day of assay, test volumes of 200 μl per well were added back containing DMEM:F12 base medium (Invitrogen; Cat #11330-032) supplemented with 0.5% FCS (HyClone; […] Cat #1324-WN) plus 2.5 μM compound. All remaining growth factors were tested at a final assay concentration of 50 ng/ml (EGF, FGF4, PDGF-A, PDGF-A/B, VEGF) with the exception of GDF-8 tested at 25 ng/ml. […] Cat #120-14). […] All remaining growth factors were tested at a final assay concentration of 50 ng/ml (EGF, FGF4, PDGF-A, PDGF-A/B, VEGF) with the exception of GDF-8 tested at 25 ng/ml. […] Cat #120-14). Negative control samples contained DMEM:F12 base medium supplemented with 2% FCS. […] At the conclusion of four-days of culture, assay plates were washed twice with PBS (Invitrogen; Cat #14190), fixed with 4% paraformaldehyde (Alexis Biochemical; Cat #ALX-350-011) at room temperature for 20 minutes, then washed three times with PBS and permeabilized with 0.5% Triton X-100 (Sigma; Cat #T8760-2) for 20 minutes at room temperature. Cells were washed again three times with PBS and blocked with 4% chicken serum (Invitrogen; Cat #16110082) in PBS for 30 minutes at room temperature. Primary antibody (goat anti-human SOX17; R&D Systems; Cat #AF1924) was diluted 1:100 in 4% chicken serum and added to each well for one hour at room temperature. Alexa Fluor 488 conjugated secondary antibody (chicken anti-goat IgG; Molecular Probes; Cat #AZ1467) was diluted 1:200 in PBS and added to each sample well after washing three times with PBS. To counterstain nuclei, 4 μg/ml Hoechst 33342 (Invitrogen; Cat #H3570) was added for ten minutes at room temperature. Plates were washed once with PBS and left in 100 μl/well PBS for imaging. Imaging was performed using an IN Cell Analyzer 1000 (GE Healthcare) utilizing the 51008bs dichroic for cells stained with Hoechst 33342 and Alexa Fluor 488. Exposure times were optimized from positive control wells and from untreated negative control wells stained with secondary antibody alone. Images from 15 fields per well were acquired to compensate for any cell loss during the bioassay and subsequent staining procedures. […] Segmentation for the nuclei was determined based on gray-scale levels (baseline range 100-300) and nuclear size. Averages and standard deviations were calculated for each replicate data set. […]

[2] = system: H1 human embryonic stem cells; test: Secondary assay: panel of compounds with growth factor combinations and muscimol, no activin A (Example 6, Table 5); format: cell-based
Protocol: Clusters of H1 human embryonic stem cells were grown on reduced growth factor […]™ (Invitrogen; Cat #356231)-coated tissue culture plastic. Cells were passaged using collagenase (Invitrogen; Cat #17104-019) treatment and gentle scraping, washed to remove residual enzyme, and plated with even dispersal at a ratio of 1:1 (surface area) on reduced growth factor […]™-coated 96-well black plates (Packard ViewPlates; PerkinElmer; Cat #6005182) using volumes of 100 μl/well. Cells were allowed to attach as clusters and then recover log phase growth over a 1 to 3 day period, feeding daily with MEF-conditioned medium supplemented with 8 ng/ml bFGF (R&D Systems; Cat #233-FB). Plates were maintained at 37° C., 5% CO2 in a humidified box throughout the duration of the assay. Stocks of growth factors purchased from R&D Systems were EGF (Cat #236-EG), FGF4 (Cat #235-F4), PDGF-A (Cat #221-AA), PDGF-D (Cat #1159-SB), PDGF-A/B (Cat #222-AB), and VEGF (Cat #293-VE). […] All growth factors were solubilized in PBS with 0.1% BSA (Sigma; Cat #A7888) and stored frozen at −80° C. […] Cat #D2650) and stored frozen at −80° C. Compounds were available as 5 mM stocks in 96-well plate format, solubilized in 100% DMSO and stored at −80° C. Compounds were further diluted to an intermediate concentration of 0.2 mM in 50 mM HEPES (Invitrogen; Cat #15630-080), 20% DMSO and stored at 4° C. All growth factors and inhibitors were prepared in a deep well, 96-well polypropylene plate, diluted to 5× intermediate stocks in DMEM:F12 base medium at the beginning of assay and stored at 4° C. A secondary screening assay was conducted, testing in triplicate and feeding on alternate days over the four-day assay timeframe. Assays were initiated by aspirating culture medium from each well followed by three washes in PBS to remove residual growth factors and serum. Test volumes of 80 μl per well were added back containing DMEM:F12 base medium (Invitrogen; Cat #11330-032) supplemented with 0.625% FCS (HyClone; […] All remaining growth factors were tested at a final assay concentration of 50 ng/ml (EGF, FGF4, PDGF-A, PDGF-A/B, VEGF). […] At the conclusion of four-days of culture, assay plates were washed twice with PBS, fixed with 4% paraformaldehyde (Alexis Biochemical; Cat #ALX-350-011) at room temperature for 20 minutes, then washed three times with PBS and permeabilized with 0.5% Triton X-100 (Sigma; Cat #T8760-2) for 20 minutes at room temperature. Cells were washed again three times with PBS and blocked with 4% chicken serum (Invitrogen; Cat #16110082) in PBS for 30 minutes at room temperature. Primary antibody (goat anti-human SOX17; R&D Systems; cat #AF1924) was diluted 1:100 in 4% chicken serum and added to each well for one hour at room temperature. Alexa Fluor 488 conjugated secondary antibody (chicken anti-goat IgG; Molecular Probes; Cat #AZ1467) was diluted 1:200 in PBS and added to each sample well after washing three times with PBS. To counterstain nuclei, 4 μg/ml Hoechst 33342 (Invitrogen; Cat #H3570) was added for ten minutes at room temperature. Plates were washed once with PBS and left in 100 μl/well PBS for imaging. Imaging was performed using an IN Cell Analyzer 1000 (GE Healthcare) utilizing the 51008bs dichroic for cells stained with Hoechst 33342 and Alexa Fluor 488. Exposure times were optimized from positive control wells and from untreated negative control wells stained with secondary antibody alone. Images from 15 fields per well were acquired to compensate for any cell loss during the bioassay and subsequent staining procedures. […] Segmentation for the nuclei was determined based on grayscale levels (baseline range 100-300) and nuclear size. Averages and standard deviations were calculated for each replicate data set. Total SOX17 protein expression was reported as total intensity or integrated intensity, defined as total fluorescence of the cell multiplied by the area of the cell. […]

[3] = EGF, FGF, PDGF-A, VEGF, PDGF-D, muscimol, GDF8
[4] = Plate 2, compound + EGF, FGF, PDGF-A, VEGF, PDGF-D, muscimol, GDF8
[5] = Plate 2, compound + EGF, FGF, PDGF-A, VEGF, PDGF-D, muscimol, GDF8, positive control Activin A/Wnt3a
[6] = Plate 1, compound + EGF, FGF, PDGF-A, VEGF, PDGF-D, muscimol, GDF8
[7] = Plate 1, compound + EGF, FGF, PDGF-A, VEGF, PDGF-D, muscimol, GDF8, positive control Activin A/Wnt3a
[8] = Table 8: hits with greater than 25% activity of the positive control, with GDF-8 and growth factors/agonists

Row | Compound | Cell Number, Average Total Cell Number [1, 4] | Sox17 Expression, Average Total Intensity [1, 4] | Cell Number, % of positive control [1, 5] | Sox17 Expression, % of positive control [1, 5] | Cell Number, % of positive control [1, 8] | Sox17 Expression, % of positive control [1, 8] | Sox17 Expression, Average Total Intensity [1, 8] | also measured
1 | CCN1CC(=O)NCCCc2cccc(c2)-c2ncnc(n2)Nc2cc(Cl)cc(c2)C1 [Compound 16, 10-Chloro-14-ethyl-3,5,7,14,17,27-hexaazatetracyclo[19.3.1.1˜2,6˜1˜8,12˜]heptacosa-1(25), 2(27), 3,5,8(26), 9,11,21,23-nonaen-16-one] | 9064 | 1.48E+08 | 57.3 % of positive control | 51.8 % of positive control | – | – | – | Cell Number, % of positive control [1, 3]: 62.0%; Cell Number, Average Total Cell Number [1, 3]: 8303; Sox17 Expression, % of positive control [1, 3]: 36.7%; Sox17 Expression, Average Total Intensity [1, 3]: 9.20E+07
2 | 9-Methyl-2,3,4,5,7,8,9,10-octahydro-16H-17,21-(azeno)-11,15-(metheno)pyrido[3,2-g][1,3,5,9,13,17]hexaazacyclotricosin-6(1H)-one [Compound 39] | – | – | – | – | – | – | – | SOX17 expression, % of positive control response ([2]; with EGF+FGF4+PDGF-A+VEGF, no activin A): 31 % of positive control response; SOX17 expression, % of positive control response ([2]; with EGF+FGF4+PDGF-AB, no activin A): 68 % of positive control response; SOX17 expression, % of positive control response ([2]; with EGF+FGF4, no activin A): 77 % of positive control response
3 | O=C1NCCCc2cncc(c2)-c2ncnc(n2)Nc2cc(Cl)cc(c2)CN2CCC[C@@H]12 [Compound 36, (18S)-10-Chloro-3,5,7,14,20,26,30-heptaazapentacyclo[22.3.1.1˜2,6˜0.1˜8,12˜0.0˜14,18˜]triaconta-1(28), 2(30), 3,5,8(29), 9,11,24,26-nonaen-19-one] | – | – | – | – | 59.5 % of positive control | 37.8 % of positive control | 9.47E+07 | Cell Number, Average Total Cell Number [1, 6]: 7964; Sox17 Expression, Average Total Intensity [1, 6]: 9.47E+07; Cell Number, % of positive control [1, 7]: 59.5 % of positive control; Sox17 Expression, % of positive control [1, 7]: 37.8 % of positive control
4 | O=C1NCCCc2cncc(c2)-c2ncnc(n2)Nc2cc(Cl)cc(c2)CN2CCCC1C2 (stereo not shown) [Compound 38, 5-Chloro-1,8,10,12,16,22,30-heptaazapentacyclo[22.2.2.1˜3,7˜0.1˜9,13˜0.1˜14,18˜]hentriaconta-3(31), 4,6,9(30), 10,12,14(29), 15,17-nonaen-23-one] | 9650 | 2.46E+08 | 61.0 % of positive control | 86.2 % of positive control | 61.0 % of positive control | 86.2 % of positive control | 2.46E+08 | –
